Consider three compounds from paper PMC7714071, “Interaction of amyloid beta with humanin and acetylcholinesterase is modulated by ATP” (FEBS Open Bio, 2020).

For one test, the system named is Aβ. To be noted: cited from earlier work. An excerpt: Soluble oligomers of proteins implicated in different diseases are primarily thought to be the main toxic form as opposed to the larger fibrillar assemblies. Aβ regions containing Tyr and Ser (H6DSGY10 and G25SNKG29) (Fig. 1) along with post‐translational modifications of these regions, have been implicated in misfolding, oligomerization, or fibril formation of Aβ [5, 10, 11, 16, 41]. […] In addition to ATP, the glycosaminoglycan, heparan sulfate (HS), has been previously reported to i ... || Access to the central domain of Aβ (residues 17–24) flanked by Lys‐16 and Lys‐28, known to be a critical structural element in fibrillar Aβ aggregates, might be regulated by binding of AChE and HN to their overlapping binding sites on Aβ. […] Moreover, we s ...

Test [1] deals with Aβ from A549 cell-conditioned media. Kind of test: ELISA, HN (endogenous and exogenously added) and AChE bound to Aβ from A549 media on 82E1 antibody. The format is binding, human. To be noted: Fig. 6A. How it is done:
Human NSCLC cell lines, A549 (ATCC CCL‐185) and H1299 (ATCC CRL‐5803), were purchased from the American Type Culture Collection (ATCC, Manassas, VA, USA). Cells were seeded as we reported earlier in 5 mL HyClone Dulbecco's modified Eagle's medium/nutrient mixture F‐12 (DMEM/F12) (GE Healthcare Life Sciences, Pittsburgh, PA, USA), supplemented with 10% Fetalgro bovine growth serum (FBS; RMBIO, Missoula, MT, USA), 50 U·mL^−1 penicillin, and […] streptomycin (Invitrogen, Life Technologies, Carlsbad, CA, USA) in 25‐cm^2 tissue culture flasks, and allowed to grow overnight in an incubator at 37 °C, 95% humidity, and 5% CO2. The cells were counted after trypan blue staining, with a hemocytometer.
ELISAs were carried out as we previously reported. Nunc MaxiSorp 96‐well flat bottom plate (Thermo Fisher) wells were coated with samples as indicated. The plates were incubated overnight at 4 °C on a shaker to allow binding of the samples to the plate wells. After the incubation, the wells were washed 4× with TBST, filled with 400 µL blocking buffer (110 mM KCl, 5 mM NaHCO3, 5 mM MgCl2, 1 mM EGTA, 0.1 mM CaCl2, 20 mM HEPES, 1% BSA, pH 7.4), and incubated with shaking overnight at 4 °C. The wells were then washed 4× with TBST, and 100 µL of sample at the desired concentration was added to each well and incubated with shaking overnight at 4 °C. TBST was then used to wash the wells 4× before proceeding in one of two ways: (a) biotinylated samples were analyzed by adding 100 µL streptavidin–HRP conjugate in TBST (1 : 2500 dilution) to the samples followed by incubation for 3 h at RT on a shaker, or (b) samples without biotin were analyzed by adding 100 µL TBST containing the primary antibody as per the manufacturer's recommendation, incubating for 3 h at RT on a shaker, followed by washing the wells 4× with TBST. The secondary antibody in 100 µL TBST was then added to the samples following the manufacturer's recommendation and incubated for 1 h at RT on a shaker. […] The reaction was stopped with 100 µL 2 M H2SO4 after incubating at RT for 0.5–15 min, resulting in a yellow color change, measured by absorbance at 450 nm. To monitor nonspecific binding, negative control wells on the plates included, for example, bound Aβ peptide then adding all components, streptavidin‐HRP and TMB, but without addition of biotin‐HN. Some wells were coated with 2.5, 10, 50, 100, 500, and 5000 nM biotin‐HN or Aβ to allow conversion of the OD measurements to concentrations of bound material. Before analysis, the OD from the data was corrected for nonspecific binding by subtracting the mean background absorbance for the negative controls. Typically, in control wells incubated on each plate, the background binding is about 10–15% of the maximum binding seen with addition of biotin peptides or antibodies. Statistical analysis was determined by the […] PRISM 8.4.3 software (San Diego, CA, USA). Data were expressed as the mean ± SD. […]
Anti‐Aβ‐specific antibodies (82E1) were added (1 : 1000 dilution) to ELISA plate wells (Fig. 6). The wells were blocked, and then, 300 µL of the conditioned media (0.5 µg·µL^−1) of A549 or H1299 cells, 72 h postserum starvation, was added in the absence or presence of increasing HN concentrations, and the HN and AChE bound were detected using the corresponding specific primary antibodies. Fold change relative to controls that included all components but without the primary antibodies was calculated and fit with a nonlinear regression curve using the […] […]
On the technique in general: An ELISA detects its analyte on a solid surface through an enzyme-linked reagent.

With `Nc1ncnc2c1ncn2[C@@H]1O[C@H](COP(=O)(O)OP(=O)(O)OP(=O)(O)O)[C@@H](O)[C@H]1O` [ATP, Adenosine triphosphate], the “effect on misfolding of Aβ” value in the test with Aβ (physiological intracellular concentrations, enhanced by magnesium) is listed as “reduced misfolding of Aβ”. The “effect of ATP on binding of exogenously added HN to Aβ” value in test [1] (0.1 mM, 1 mM ATP (more pronounced at 1 mM), A549 media) is listed as “decreased binding of exogenously added HN”. For the same compound, in test [1] (A549 cell-conditioned media, 82E1), the “effect of ATP on binding of Aβ to AChE” value is “decreased upon addition of ATP”. Moreover, in test [1] (increasing ATP (0.1 mM, 1 mM; more pronounced at 1 mM), A549 media, 82E1), the “effect of ATP on binding of endogenous HN to Aβ” value was “increased binding of endogenous HN”.
For Humanin [HN], the “Aβ aggregation in presence of both HN and AChE” value in the test on Aβ (to levels close to HN alone) is listed as “greatly diminished”. In addition, the “HN concentration at which signal begins to level off” value in test [1] (exogenous HN, A549 media) is recorded as “around 50 nM”. Also, the “binding of exogenous HN to Aβ” value in test [1] (increasing exogenous HN, A549 media, 82E1) was “increased binding to Aβ”.
As to heparan sulfate [HS], the “effect of HS on Aβ aggregation” value in the test with Aβ is recorded as “increasing their aggregation”.
